Common to all, as to format: biochemical
Conditions in all cases: acetyl-CoA constant 10 mM, 40 mM Tris-HCl pH 8, 2 mM MgCl2, 37° C., 40 h

For assay [1], the target named is T1, Gallus gallus (Chicken) HMG-CoA synthase, cytoplasmic, P23228, SEQ ID NO: 7 (Gallus gallus, UniProt P23228).
T1 construct: made in house; host or cells: E. coli BL21
T1 sequence (P23228 1-522): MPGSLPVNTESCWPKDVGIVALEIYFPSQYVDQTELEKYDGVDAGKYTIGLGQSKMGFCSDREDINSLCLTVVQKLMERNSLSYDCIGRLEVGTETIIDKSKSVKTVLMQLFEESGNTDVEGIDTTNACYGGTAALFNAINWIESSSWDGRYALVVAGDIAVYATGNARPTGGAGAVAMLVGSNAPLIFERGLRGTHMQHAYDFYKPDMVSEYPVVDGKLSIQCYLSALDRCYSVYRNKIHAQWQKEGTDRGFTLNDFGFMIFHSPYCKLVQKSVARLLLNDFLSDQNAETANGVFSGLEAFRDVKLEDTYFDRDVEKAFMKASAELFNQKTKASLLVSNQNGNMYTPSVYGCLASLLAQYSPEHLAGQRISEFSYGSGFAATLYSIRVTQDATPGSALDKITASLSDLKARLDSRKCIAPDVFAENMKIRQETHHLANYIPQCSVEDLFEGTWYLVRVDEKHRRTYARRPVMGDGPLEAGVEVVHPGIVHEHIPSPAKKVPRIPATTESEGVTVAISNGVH
The assay can be described thus: Kinetic parameters for the enzymatic reaction between acetyl-CoA and acetone, HMG-CoA synthase of Gallus gallus. The protocol:
(§1) Kinetic Parameters for the Enzymatic Reaction Between Acetyl-CoA and Acetone in the Case of HMG Synthases
(§2) The kinetic parameters were measured using a variable concentration of acetone and a constant concentration of acetyl-CoA (10 mM) in following conditions:
(§3) The final pH was adjusted to 8.
(§4) The reaction was initiated by the addition of 3 mg of purified enzyme to the 1 ml reaction mixture. The mixture was then incubated without shaking at 37° C. for 40 h.
(§5) Analysis of 3-hydroxy-3-methylbutyrate Production
(§6) Thermochemical conditions leading to the decomposition of 3-hydroxy-3-methylbutyrate into isobutene were applied (Pressman et al., JACS, 1940, 2069-2080): the pH of the reaction mixtures was first adjusted to pH 4 using 6N HCl and the samples were then transferred into gas chromatography vials (Interchim). The vials were sealed and incubated at 110° C. for 4 hours, thus leading to the decomposition of 3-hydroxy-3-methylbutyrate into isobutene.
(§7) The calibration curve was prepared in the same conditions using commercial 3-hydroxy-3-methylbutyrate.
(§8) One milliliter of headspace gas was collected and injected into a HP5890 gas chromatograph (HP) equipped with a FID detector and a CP SilicaPlot® column (chromatography column; Varian). Commercial isobutene was used as reference. From the isobutene signal the amount of 3-hydroxy-3-methylbutyrate initially present in the sample was calculated.

In assay [2] the target is Staphylococcus epidermidis HMG-CoA synthase, Q8CN06, SEQ ID NO: 11 (Staphylococcus epidermidis, UniProt Q9FD76). The assay can be described thus: Kinetic parameters for the enzymatic reaction between acetyl-CoA and acetone, HMG-CoA synthase of Staphylococcus epidermidis. The protocol: as §1, §2, §3, §4, §5, §6, §7, §8
Assay [3] addresses T2, Schizosaccharomyces pombe (Fission yeast) HMG-CoA synthase, cytoplasmic, P54874, SEQ ID NO: 2 (Schizosaccharomyces pombe, UniProt P54874).
T2 construct: made in house; host or cells: E. coli BL21
T2 sequence (P54874 1-447): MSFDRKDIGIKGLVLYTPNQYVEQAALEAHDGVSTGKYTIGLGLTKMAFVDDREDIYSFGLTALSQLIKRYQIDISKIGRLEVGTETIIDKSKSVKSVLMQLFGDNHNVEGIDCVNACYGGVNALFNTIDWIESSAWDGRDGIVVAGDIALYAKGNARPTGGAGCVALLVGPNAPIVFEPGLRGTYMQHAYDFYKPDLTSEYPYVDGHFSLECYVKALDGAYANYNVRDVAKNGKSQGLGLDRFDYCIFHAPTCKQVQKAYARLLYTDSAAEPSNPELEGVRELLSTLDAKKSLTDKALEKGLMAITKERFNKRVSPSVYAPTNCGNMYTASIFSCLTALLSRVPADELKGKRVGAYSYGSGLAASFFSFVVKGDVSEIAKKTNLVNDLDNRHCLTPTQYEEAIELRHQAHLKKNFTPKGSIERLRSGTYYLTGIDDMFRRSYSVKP
The assay can be described thus: Kinetic parameters for the enzymatic reaction between acetyl-CoA and acetone, HMG-CoA synthase of Schizosaccharomyces pombe. Here is the method: as §1, §2, §3, §4, §5, §6, §7, §8

Chain of Staphylococcus epidermidis HMG-CoA synthase, Q8CN06, SEQ ID NO: 11 (Q9FD76 entry or part of it, one chain of several): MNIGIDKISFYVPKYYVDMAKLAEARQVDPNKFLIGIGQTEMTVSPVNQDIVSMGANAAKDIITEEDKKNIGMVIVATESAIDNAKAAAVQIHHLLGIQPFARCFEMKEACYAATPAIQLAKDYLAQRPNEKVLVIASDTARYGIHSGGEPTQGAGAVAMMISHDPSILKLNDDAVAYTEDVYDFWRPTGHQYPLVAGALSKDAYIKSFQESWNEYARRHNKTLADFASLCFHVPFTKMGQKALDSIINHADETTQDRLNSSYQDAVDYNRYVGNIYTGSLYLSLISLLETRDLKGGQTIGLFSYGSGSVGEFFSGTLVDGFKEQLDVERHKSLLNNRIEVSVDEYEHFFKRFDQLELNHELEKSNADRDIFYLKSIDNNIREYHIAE

`CC(C)=O` [acetone]: the kcat was 5 × 10^−4, sec^−1 in assay [1] (0-1 M acetone); 0.6 × 10^−4, sec^−1 in assay [2] (0-1 M acetone); 0.2 × 10^−4, sec^−1 in assay [3] (0-1 M acetone). Further, the kcat/KM in assay [1] (acetone) is on record as 2 × 10^−6, mM^−1 × sec−^1; in assay [2] (acetone) it was 0.3 × 10^−6, mM^−1 × sec−^1; in assay [3] (acetone), 0.1 × 10^−6, mM^−1 × sec−^1.

The record behind these values is patent US9556460B2, “Method for the production of 3-hydroxy-3-methylbutyric acid from acetone and an activated acetyl compound” (Scientist of Fortune, S.A., priority 2009, dated 2017).
